Entries after “also recorded” stand apart in the source; their conditions may differ. Where two headings read alike, the source gives them in different places.
Columns and labels:
[1] = system: VEGFR; settings: read-out: inhibition of VEGFR, cell-free assay; cited from earlier work
[2] = system: c-KIT; settings: read-out: inhibition of c-KIT, cell-free assay; cited from earlier work
[3] = system: PDGFR; settings: read-out: inhibition of PDGFR, cell-free assay; cited from earlier work
[4] = target: MEK5 (Homo sapiens, UniProt Q13163); test: ADP-Glo biochemical kinase assay, MEK5; settings: functional profiling assay
[5] = target: T1, MEK7 (Homo sapiens, UniProt O14733); test: ADP-Glo biochemical kinase assay, MEK7; settings: functional profiling assay
T1 sequence (O14733 1-419): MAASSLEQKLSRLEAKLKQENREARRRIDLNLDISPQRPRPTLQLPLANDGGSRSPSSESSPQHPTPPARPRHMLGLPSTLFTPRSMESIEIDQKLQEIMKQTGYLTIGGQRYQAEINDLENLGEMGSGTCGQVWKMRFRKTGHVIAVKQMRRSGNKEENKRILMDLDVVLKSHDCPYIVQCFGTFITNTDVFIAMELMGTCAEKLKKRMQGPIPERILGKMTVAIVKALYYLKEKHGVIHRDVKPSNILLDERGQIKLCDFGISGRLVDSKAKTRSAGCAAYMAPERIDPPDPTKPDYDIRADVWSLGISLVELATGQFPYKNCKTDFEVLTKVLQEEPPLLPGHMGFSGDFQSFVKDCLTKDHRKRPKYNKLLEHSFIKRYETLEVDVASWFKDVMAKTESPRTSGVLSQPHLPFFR

[6] = target: T2, MEK6 (Homo sapiens, UniProt P52564); test: ADP-Glo biochemical kinase assay, MEK6
T2 sequence (P52564 1-334): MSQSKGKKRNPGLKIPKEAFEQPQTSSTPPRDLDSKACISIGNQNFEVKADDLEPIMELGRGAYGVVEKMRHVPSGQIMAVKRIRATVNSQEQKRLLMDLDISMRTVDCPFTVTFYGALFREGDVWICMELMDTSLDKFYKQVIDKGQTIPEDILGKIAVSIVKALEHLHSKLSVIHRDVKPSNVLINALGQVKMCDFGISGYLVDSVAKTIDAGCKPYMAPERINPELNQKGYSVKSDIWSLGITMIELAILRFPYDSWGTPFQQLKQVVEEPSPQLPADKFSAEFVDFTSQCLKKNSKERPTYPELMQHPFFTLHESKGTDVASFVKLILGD

[7] = target: T3, MEK4 (Homo sapiens, UniProt P45985); test: ADP-Glo biochemical kinase assay, MEK4; settings: read-out: IC50 against MEK4, ATP below Km
T3 sequence (P45985 1-399): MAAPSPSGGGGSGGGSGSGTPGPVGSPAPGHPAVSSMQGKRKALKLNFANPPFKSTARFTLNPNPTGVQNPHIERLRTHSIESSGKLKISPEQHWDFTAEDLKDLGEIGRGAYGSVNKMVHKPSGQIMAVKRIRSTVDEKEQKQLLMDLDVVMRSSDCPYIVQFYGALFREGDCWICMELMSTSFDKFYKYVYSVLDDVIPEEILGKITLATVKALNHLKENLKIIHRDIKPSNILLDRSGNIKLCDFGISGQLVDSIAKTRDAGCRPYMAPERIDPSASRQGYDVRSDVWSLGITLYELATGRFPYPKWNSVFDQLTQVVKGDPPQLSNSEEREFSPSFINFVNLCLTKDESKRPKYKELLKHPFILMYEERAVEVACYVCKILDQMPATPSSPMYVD

Sequence of MEK5 (Q13163 whole entry): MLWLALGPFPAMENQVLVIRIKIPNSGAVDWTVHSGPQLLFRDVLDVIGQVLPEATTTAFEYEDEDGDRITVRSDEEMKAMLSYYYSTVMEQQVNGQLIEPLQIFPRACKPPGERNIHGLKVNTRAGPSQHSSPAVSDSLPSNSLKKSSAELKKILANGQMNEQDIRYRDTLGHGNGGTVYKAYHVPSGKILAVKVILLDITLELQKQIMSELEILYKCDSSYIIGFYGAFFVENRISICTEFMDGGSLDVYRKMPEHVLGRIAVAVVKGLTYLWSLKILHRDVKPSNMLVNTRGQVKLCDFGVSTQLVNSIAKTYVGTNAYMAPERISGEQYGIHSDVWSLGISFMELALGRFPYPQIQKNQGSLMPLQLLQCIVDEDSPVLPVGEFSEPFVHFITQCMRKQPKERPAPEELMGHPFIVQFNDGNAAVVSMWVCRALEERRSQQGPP

5-[[4-[(2, 3-Dimethyl-2 H-indazol-6-yl) methylamino]-2-pyrimidinyl] amino]-2-methyl-benzene-sulfonamide [Pazopanib]
IC50 [1]: 0.01 to 0.047 µM
IC50 [2]: 0.14 µM
IC50 [3]: 0.084 µM

CCN1CCN(Cc2ccc(NC(=O)Nc3ccc(Oc4cc(NC)ncn4)cc3)cc2C(F)(F)F)CC1 [AST-487]
inhibition of MEK5 (in words) [4]: strongly inhibited
inhibition of MEK7 (in words) [5]: inhibition; also recorded: strongly inhibited

CN(C)C[C@@H]1CCn2cc(c3ccccc32)C2=C(C(=O)NC2=O)c2cn(c3ccccc23)CCO1 [LY-333531]
inhibition of MEK7 (in words) [5]: inhibition

CCCS(=O)(=O)Nc1ccc(F)c(C(=O)c2c[nH]c3ncc(Cl)cc23)c1F [PLX-4720]
IC50 [6]: 60 µM

O=C(c1c(F)cccc1F)c1c[nH]c2ncc(Cl)cc12 [compound 3a]
IC50 ([6]; read-out: IC50 against MEK6, ADP-Glo, ATP below Km): 75.1 µM
IC50 [7]: 6.9 µM
